# Source: ChEMBL document CHEMBL1201862, “PubChem BioAssay data set” (2004)
# Activity calls are given as the source filed them.
# Key:
# Estrogen receptor = biological target: T1, Estrogen receptor (Homo sapiens, UniProt P03372);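 further: potency for inhibiting coactivator peptide recruitment to the receptor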
# T1 sequence (P03372 whole entry): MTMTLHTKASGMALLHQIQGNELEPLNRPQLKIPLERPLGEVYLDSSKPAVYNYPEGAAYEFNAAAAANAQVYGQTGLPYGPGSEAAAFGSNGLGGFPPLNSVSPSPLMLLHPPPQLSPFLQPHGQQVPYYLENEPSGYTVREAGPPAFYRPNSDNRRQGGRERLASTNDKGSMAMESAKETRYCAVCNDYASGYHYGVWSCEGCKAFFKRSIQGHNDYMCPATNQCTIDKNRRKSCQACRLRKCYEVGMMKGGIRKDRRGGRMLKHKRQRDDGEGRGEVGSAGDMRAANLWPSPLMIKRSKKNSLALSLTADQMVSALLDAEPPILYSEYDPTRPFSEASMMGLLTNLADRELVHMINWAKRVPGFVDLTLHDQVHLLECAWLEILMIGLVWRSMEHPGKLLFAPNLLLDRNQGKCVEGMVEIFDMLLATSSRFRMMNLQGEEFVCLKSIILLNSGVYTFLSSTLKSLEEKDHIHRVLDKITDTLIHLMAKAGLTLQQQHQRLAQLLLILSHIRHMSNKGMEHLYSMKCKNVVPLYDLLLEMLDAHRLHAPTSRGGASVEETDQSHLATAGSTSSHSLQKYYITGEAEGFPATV
# [1] = biological target: T2, Corticotropin-releasing factor receptor 2/Corticotropin-releasing factor-binding protein (Homo sapiens, UniProt P24387+Q13324); assay: activators of CRF receptor 2 with binding protein – uHTS hits, confirmation (AID 602473); format: functional; conditions: read-out: EC50_Mean
# T2 sequence (Q13324 whole entry): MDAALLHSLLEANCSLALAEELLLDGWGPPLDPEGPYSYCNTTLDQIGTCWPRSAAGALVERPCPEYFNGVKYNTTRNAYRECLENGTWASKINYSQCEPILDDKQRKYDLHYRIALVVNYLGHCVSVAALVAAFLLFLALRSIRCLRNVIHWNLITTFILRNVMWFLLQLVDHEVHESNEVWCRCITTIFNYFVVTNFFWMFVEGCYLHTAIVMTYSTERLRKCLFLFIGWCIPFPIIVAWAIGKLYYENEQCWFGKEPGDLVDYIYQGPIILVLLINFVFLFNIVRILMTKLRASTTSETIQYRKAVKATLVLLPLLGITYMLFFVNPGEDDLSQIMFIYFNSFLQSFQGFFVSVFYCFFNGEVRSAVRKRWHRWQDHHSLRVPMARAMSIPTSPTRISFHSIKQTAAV
# T2 sequence (P24387 whole entry): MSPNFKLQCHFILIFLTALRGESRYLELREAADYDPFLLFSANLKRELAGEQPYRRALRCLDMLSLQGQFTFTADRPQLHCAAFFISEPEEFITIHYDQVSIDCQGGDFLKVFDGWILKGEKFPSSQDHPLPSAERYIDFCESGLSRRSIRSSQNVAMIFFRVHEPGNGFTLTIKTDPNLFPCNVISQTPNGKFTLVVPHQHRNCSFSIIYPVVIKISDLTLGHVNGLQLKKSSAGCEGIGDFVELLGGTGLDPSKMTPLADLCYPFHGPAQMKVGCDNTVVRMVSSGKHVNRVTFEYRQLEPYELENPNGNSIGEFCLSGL
# Aspartyl aminopeptidase = biological target: T3, Aspartyl aminopeptidase (Plasmodium falciparum 3D7, UniProt Q8I2J3); assay: Counterscreen for inhibitors of M1 and M17 aminopeptidases: QFRET-based biochemical high throughput dose response assay for inhibitors of the Plasmodium falciparum M18 Aspartyl Aminopeptidase (PFM18AAP). [Related PubChem assays: 1619 (Screening assay (M17LAP inhibitors).), 1445 (Screening assay (M1AAP inhibitors).)]
# T3 sequence (Q8I2J3 whole entry): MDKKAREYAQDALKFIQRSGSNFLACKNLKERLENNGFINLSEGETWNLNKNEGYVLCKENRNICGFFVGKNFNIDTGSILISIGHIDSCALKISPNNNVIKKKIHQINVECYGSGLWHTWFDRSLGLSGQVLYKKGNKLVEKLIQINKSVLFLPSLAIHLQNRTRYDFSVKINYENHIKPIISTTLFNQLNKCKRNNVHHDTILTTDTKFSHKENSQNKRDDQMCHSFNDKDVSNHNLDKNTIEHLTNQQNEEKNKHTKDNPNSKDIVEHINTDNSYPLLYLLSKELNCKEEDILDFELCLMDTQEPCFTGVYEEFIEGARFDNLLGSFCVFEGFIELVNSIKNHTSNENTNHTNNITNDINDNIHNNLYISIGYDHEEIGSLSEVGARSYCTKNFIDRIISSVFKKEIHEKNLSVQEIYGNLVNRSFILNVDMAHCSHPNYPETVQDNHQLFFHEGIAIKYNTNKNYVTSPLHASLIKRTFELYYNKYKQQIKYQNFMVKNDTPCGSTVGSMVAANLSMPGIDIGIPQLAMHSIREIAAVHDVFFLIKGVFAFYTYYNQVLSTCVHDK
# Leucine aminopeptidase = biological target: T4, Leucine aminopeptidase (Plasmodium falciparum 3D7, UniProt Q8IL11); assay: P. falciparum M17LAP inhibitors, primary screen, biochemical, fluorogenic H-Leu-NHMec substrate, 1536-well (AID 1619); format: functional
# T4 sequence (Q8IL11 whole entry): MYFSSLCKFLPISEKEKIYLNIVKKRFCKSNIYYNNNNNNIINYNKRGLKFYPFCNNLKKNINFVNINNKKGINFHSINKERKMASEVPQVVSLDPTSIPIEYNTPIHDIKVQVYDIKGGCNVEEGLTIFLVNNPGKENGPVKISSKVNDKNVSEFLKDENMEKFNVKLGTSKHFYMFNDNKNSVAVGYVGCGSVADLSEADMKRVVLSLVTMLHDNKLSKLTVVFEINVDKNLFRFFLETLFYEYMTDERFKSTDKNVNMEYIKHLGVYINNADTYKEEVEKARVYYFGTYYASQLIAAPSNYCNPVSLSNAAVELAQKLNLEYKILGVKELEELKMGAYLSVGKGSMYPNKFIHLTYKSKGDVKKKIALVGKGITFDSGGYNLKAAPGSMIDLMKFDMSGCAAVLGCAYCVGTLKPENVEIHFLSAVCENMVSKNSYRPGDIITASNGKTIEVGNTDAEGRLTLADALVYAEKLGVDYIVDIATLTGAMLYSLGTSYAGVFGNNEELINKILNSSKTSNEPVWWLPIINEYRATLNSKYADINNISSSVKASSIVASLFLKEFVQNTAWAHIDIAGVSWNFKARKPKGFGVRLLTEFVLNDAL
# Procathepsin L = Procathepsin L (Homo sapiens, UniProt P07711); assay: cathepsin L inhibitors, dose response, counter-screen for M1/M17 aminopeptidase inhibitor project, biochemical, QFRET, 1536-well (AID 2214)
# Procathepsin L, sequence (P07711 whole entry): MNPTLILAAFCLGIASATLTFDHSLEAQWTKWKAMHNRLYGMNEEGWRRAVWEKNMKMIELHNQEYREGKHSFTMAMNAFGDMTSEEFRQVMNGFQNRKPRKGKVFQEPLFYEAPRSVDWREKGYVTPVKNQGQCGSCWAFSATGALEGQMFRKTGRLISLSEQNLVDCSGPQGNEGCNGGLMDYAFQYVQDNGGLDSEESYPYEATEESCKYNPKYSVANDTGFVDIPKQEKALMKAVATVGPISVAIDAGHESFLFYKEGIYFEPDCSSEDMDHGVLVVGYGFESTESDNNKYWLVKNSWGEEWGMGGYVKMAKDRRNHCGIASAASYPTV
# [2] = HEp-2 cell cytotoxicity, dose response, cytotoxicity control for RSV inhibitor project, HTS (AID 2410); format: functional; conditions: human respiratory syncytial virus
# [3] = biological target: T5, Aryl hydrocarbon receptor (Homo sapiens, UniProt P35869); assay: Luminescence-based cell-based high throughput dose response assay for activators of the Aryl Hydrocarbon Receptor (AHR). [Related pubchem assays: 2796 (Primary screen (AHR activators in singlicate)), 2845 (Confirmation screen (AHR activators in triplicate)), 434939 (Counterscreen (PXR activators in triplicate)), 2804 (Summary (AHR activators))]; format: ADME
# T5 sequence (P35869 whole entry): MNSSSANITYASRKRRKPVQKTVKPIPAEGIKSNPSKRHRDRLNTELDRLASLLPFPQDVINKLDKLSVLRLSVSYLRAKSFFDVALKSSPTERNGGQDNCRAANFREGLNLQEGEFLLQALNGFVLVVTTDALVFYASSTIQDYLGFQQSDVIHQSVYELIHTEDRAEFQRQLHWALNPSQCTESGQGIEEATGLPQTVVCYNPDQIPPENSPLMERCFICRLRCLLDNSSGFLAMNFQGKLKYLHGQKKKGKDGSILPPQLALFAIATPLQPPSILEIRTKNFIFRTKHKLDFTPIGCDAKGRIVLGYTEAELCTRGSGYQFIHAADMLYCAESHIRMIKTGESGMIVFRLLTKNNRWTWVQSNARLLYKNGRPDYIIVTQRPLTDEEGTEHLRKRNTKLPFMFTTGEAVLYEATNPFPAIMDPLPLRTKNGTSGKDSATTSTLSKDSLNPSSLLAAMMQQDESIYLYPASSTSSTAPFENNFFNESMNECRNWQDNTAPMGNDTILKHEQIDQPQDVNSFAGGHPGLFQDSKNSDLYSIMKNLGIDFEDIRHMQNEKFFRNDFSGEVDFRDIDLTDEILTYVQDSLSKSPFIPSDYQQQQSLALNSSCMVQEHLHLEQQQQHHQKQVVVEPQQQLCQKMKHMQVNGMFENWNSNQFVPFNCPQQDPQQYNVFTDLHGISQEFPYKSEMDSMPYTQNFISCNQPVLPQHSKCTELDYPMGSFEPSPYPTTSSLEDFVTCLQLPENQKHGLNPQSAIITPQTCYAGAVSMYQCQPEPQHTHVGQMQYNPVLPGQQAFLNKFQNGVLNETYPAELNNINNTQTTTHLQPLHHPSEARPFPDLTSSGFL
# [4] = A cytotoxicity screen of small molecule inhibitors of the PhoP region in Salmonella typhi identified in the primary screen. [Related pubchem assays: 1850, 1864, 1985 ]; format: functional
# Estrogen receptor beta [5] = biological target: T6, Estrogen receptor beta (Homo sapiens, UniProt Q92731);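 further: recombinant ER-beta bound to coactivator SRC1 peptide in presence of estradiol agonist; inhibitors block coactivator peptide binding and lower the FRET signal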
# T6 sequence (Q92731 whole entry): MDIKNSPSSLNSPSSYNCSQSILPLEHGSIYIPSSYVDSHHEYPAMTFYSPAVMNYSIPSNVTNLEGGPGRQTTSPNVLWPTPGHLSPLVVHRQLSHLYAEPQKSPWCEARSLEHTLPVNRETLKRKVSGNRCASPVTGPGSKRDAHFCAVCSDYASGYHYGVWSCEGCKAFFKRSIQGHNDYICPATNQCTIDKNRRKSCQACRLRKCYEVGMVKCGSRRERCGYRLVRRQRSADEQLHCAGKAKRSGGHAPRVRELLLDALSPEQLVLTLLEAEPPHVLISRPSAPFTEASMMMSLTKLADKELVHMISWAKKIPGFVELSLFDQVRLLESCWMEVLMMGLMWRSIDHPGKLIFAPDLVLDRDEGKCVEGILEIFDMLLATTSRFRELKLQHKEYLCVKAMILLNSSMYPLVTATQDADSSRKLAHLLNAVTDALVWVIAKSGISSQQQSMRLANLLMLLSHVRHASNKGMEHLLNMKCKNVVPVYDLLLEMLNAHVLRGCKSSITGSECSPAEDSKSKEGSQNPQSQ
# [6] = inhibitors of intracellular T. cruzi replication, confirmation, NIH3T3 host cells, beta-gal luminescence (AID 2044); format: functional, cell-based;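 further: intracellular parasites grown in NIH/3T3 mouse fibroblasts as host cells; luminescent beta-galactosidase reporter signal from transgenic T. cruzi replicating inside host cells; inhibitors lower the luminescence signal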
# [7] = microbe, parasite or virus in culture; format: functional; conditions: Mycobacterium tuberculosis
# [8] = cytotoxicity toward NIH3T3 fibroblasts, dose response, counter-screen, cell-based, ATP luminescence, mouse fibroblasts (AID 2010); format: functional;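 further: cells exposed to compound for about 90 hours before reading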
# cells [9] = assay: cells
# cells [10] = format: functional
# Cytochrome P450 3A4 = Cytochrome P450 3A4 (Homo sapiens, UniProt P08684); conditions: Potency;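 further: confirmatory qHTS run detecting inhibitors and substrates of CYP3A4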
# Cytochrome P450 3A4, sequence (P08684 whole entry): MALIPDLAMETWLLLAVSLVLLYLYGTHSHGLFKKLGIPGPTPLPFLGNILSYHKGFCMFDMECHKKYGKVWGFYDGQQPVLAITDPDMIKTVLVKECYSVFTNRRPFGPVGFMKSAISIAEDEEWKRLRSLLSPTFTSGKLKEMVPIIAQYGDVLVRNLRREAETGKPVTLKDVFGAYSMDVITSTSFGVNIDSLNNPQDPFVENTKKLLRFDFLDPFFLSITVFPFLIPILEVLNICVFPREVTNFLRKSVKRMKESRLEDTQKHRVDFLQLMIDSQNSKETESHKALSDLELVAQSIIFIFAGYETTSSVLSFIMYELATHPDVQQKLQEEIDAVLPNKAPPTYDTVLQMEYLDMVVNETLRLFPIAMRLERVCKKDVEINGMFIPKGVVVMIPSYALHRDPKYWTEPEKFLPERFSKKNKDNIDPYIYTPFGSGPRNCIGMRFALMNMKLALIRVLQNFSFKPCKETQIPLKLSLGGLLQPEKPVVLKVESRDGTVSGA
# Cytochrome P450 2D6 = Cytochrome P450 2D6 (Homo sapiens, UniProt P10635); assay: qHTS Assay for Inhibitors and Substrates of Cytochrome P450 2D6. [Related pubchem assays: 410 ]; format: ADME; conditions: read-out: Potency
# Cytochrome P450 2D6, sequence (P10635 whole entry): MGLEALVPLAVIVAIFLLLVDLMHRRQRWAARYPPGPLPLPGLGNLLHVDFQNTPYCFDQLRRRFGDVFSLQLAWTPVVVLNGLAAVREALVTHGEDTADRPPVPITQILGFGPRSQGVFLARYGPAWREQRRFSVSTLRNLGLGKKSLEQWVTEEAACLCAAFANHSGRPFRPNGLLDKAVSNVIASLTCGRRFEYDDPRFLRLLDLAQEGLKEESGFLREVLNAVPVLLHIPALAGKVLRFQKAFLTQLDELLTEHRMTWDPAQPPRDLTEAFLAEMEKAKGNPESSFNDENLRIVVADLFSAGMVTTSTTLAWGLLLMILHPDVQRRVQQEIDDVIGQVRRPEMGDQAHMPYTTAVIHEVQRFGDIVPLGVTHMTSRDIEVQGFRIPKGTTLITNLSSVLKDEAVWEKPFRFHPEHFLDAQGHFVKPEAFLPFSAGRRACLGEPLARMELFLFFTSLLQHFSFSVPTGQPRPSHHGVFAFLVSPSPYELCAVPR
# Prothrombin = Prothrombin (Homo sapiens, UniProt P00734); assay: Thrombin 1536 HTS Dose Response Confirmation. [Related pubchem assays: 1046 (Thrombin 1536 HTS; hits were confirmed in this assay)]; format: functional
# [11] = biological target: T7, Carboxy-terminal domain RNA polymerase II polypeptide A small phosphatase 1 (Homo sapiens, UniProt Q9GZU7); assay: inhibitors of CTDSP1, concentration-response testing, biochemical assay, absorbance-based, actives from ultra-high-throughput screening (AID 540297); format: functional
# T7 sequence (Q9GZU7 whole entry): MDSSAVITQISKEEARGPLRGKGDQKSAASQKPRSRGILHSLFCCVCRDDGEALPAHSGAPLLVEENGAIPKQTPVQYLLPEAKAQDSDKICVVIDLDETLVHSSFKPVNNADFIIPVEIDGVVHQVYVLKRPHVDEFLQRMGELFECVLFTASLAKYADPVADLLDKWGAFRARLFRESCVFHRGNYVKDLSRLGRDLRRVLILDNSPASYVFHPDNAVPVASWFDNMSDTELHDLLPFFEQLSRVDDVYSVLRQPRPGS
# [12] = biological target: Induced myeloid leukemia cell differentiation protein Mcl-1 (Homo sapiens, UniProt Q07820); format: functional
# Induced myeloid leukemia cell differentiation protein Mcl-1, sequence (Q07820 whole entry): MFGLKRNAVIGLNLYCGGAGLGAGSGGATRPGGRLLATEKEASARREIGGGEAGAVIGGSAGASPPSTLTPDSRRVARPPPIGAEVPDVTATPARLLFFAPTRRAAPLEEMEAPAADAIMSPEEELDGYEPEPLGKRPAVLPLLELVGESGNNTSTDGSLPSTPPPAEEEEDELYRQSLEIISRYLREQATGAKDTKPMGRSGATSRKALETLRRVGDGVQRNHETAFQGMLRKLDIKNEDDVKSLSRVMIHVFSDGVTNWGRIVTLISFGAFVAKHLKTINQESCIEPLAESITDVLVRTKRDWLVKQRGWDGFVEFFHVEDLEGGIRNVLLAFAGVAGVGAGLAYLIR
# Estrogen receptor beta [13] = biological target: T6, Estrogen receptor beta; assay: ERβ–SRC-3 coactivator interaction inhibitors, confirmation, orthogonal assay, biochemical, ELISA, streptavidin-HRP readout (AID 1060)
smiles,measurement,setting,value
CCOC(=O)c1cc2ccccc2n1CCN(CC)CC,IC50,Estrogen receptor,> 50 µM (not active)
same,EC50,[1],6.45 µM (active)
CC1(C)Cc2c(sc(NC(=O)C3CC(Cl)=CCC3C(=O)O)c2C#N)CO1 (stereo not drawn),IC50,Aspartyl aminopeptidase,> 73.5 µM (not active)
same,IC50,Leucine aminopeptidase,1.4 µM (active)
same,IC50,Procathepsin L,> 59.6 µM (not active)
Cc1cc(C)n2cc(-c3ccc(Cl)cc3)c(C(=O)O)c2n1,CC50,[2],38.9 µM (active)
same,EC50,[3],0.994 µM (active)
Cc1ccc(OCC(O)Cn2c(N)nc3c2c(=O)n(C)c(=O)n3C)cc1 (stereo not drawn),EC50,[4],> 50 µM (active)
O=C(Nc1ccc(Cc2ccncc2)cc1)C1CCC(N2C(=O)C3CC=CCC3C2=O)CC1 (stereo not drawn),IC50,Estrogen receptor,> 50 µM (not active)
same,IC50,Estrogen receptor beta [5],> 50 µM (not active)
O=C(c1cc([N+](=O)[O-])cc([N+](=O)[O-])c1)N(Cc1nnc(-c2ccccc2Cl)o1)C1CC1,EC50,[6],< 0.1 µM (active)
same,CC50,[7],> 40 µM (active)
same,EC50,[8],> 60 µM (not active)
same,EC50,cells [9],0.068 µM (active)
same,IC50,cells [10],1.75 µM (active)
CCCCc1nc2c(c3c1CC(C)OC3)CN(CCOc1ccccc1)CC2 (stereo not drawn),AC50,Cytochrome P450 3A4,3.16 µM (inconclusive)
same,AC50,Cytochrome P450 2D6,3.16 µM (inconclusive)
C=CCn1c(N)cc(=O)nc1SCC(=O)Nc1ccc2ccccc2c1,IC50,Aspartyl aminopeptidase,> 73.5 µM (not active)
same,IC50,Leucine aminopeptidase,5.68 µM (active)
same,IC50,Procathepsin L,> 59.6 µM (not active)
CN(C)c1ccc(CNCCC2CCOC(C)(C)C2)cc1 (stereo not drawn),EC50,[6],< 0.1 µM (active)
same,EC50,[8],> 30 µM (not active)
same,EC50,cells [9],0.036 µM (active)
O=C(Nc1cccc(-c2cn3cccnc3n2)c1)c1ccc2c(c1)OCO2,IC50,Estrogen receptor,6.67 µM (active)
Nc1c(C(=O)c2ccc(Br)cc2)oc2ccccc12,EC50,[3],3.3 µM (active)
CCN(/N=C/c1ccc(Cl)cc1)c1cc(=O)n(C)c(=O)[nH]1,EC50,[3],1.12 µM (active)
Cc1ccc(/C=c2\sc3nc(-c4ccccc4Br)nn3c2=O)o1,IC50,Prothrombin,> 50 µM (not active)
same,IC50,Estrogen receptor beta [5],> 50 µM (not active)
same,IC50,[11],5.95 µM (active)
same,IC50,Leucine aminopeptidase,95.5 µM (active)
same,IC50,[12],3.18 µM (active)
same,IC50,Estrogen receptor beta [13],0.0611 µM (not active)
CC1=NCCc2c1[nH]c1cc(O)ccc21 [HARMALOL],AC50,Cytochrome P450 2D6,31.6 µM (inconclusive)
